The record followed here is patent US9682967B2.

Structures are written as SMILES.

The assay deals with hSortilin (Homo sapiens (Human), UniProt Q99523). The experiment in a line: hSortilin affinity assay (displacement of 3H-neurotensin, SPA). The format is binding. Particulars: for IC50: [3H]-Neurotensin 5 nM, 150 nM 6his-Sortilin, read-out: hSortilin NTS Binding IC50; for Ki: from IC50 by Cheng-Prusoff, Kd neurotensin 100 nM. A general note: Displacement assays read how much labelled ligand stays bound in the presence of the test substance.
hSortilin, sequence (Q99523 34-755): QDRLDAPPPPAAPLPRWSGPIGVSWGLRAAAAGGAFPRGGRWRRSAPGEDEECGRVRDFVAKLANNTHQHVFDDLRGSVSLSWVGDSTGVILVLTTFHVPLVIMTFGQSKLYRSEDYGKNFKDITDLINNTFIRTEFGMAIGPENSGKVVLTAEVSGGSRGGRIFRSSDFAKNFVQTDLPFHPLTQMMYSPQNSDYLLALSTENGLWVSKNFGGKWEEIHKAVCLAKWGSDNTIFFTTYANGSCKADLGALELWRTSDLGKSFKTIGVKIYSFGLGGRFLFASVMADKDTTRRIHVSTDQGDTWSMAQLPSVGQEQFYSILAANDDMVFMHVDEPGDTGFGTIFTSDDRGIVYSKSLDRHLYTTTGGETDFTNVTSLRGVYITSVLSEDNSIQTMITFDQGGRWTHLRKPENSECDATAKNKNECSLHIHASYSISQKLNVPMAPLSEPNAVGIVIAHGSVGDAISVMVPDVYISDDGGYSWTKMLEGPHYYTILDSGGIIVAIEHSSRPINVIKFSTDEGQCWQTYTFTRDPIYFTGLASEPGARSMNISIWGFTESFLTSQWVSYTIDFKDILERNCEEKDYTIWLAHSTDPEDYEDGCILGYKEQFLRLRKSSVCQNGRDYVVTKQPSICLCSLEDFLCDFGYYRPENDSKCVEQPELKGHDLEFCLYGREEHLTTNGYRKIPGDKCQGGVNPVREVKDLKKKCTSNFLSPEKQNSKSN

In general, IC50 refers to the concentration that inhibits the measured activity by half. As a reminder, the Ki is the dissociation constant of the complex between target and ligand, obtained from inhibition or displacement. A low value points to a stronger hold on the target. Consider `Cc1cccc(NC(=O)c2ccc(Br)cc2C(=O)O)n1` [Example 2, 5-Bromo-N-(6-methyl-pyridin-2-yl)-phthalamic acid], for which the IC50 came to 1200 nM and affinity was put at a Ki of 1140 nM.
The matching figures for `Cc1ccc(C(=O)Nc2cccc(C)n2)c(C(=O)O)c1` [Example 3, 5-Methyl-N-(6-methyl-pyridin-2-yl)-phthalamic acid]: 6400 nM and 6100 nM.
In the case of `Cc1cccc(NC(=O)c2ccc(Cl)cc2C(=O)O)n1` [Example 4, 5-Chloro-N-(6-methyl-pyridin-2-yl)-phthalamic acid], the concentration for half-maximal inhibition (IC50) was determined as 1400 nM and the Ki came to 1330 nM.
For `Cc1cccc(NC(=O)c2cc(Cl)c(Cl)cc2C(=O)O)n1` [Example 5, 4,5-Dichloro-N-(6-methyl-pyridin-2-yl)-phthalamic acid], the IC50 is 830 nM and the inhibition constant Ki turned out to be 790 nM.
In the case of `N#Cc1c(NC(=O)c2ccc(Br)cc2C(=O)O)sc2c1CCCC2` [Example 6], the IC50 amounted to 4000 nM.
On to `Cc1ccc(NC(=O)c2ccc(C(F)(F)F)cc2C(=O)O)nc1C` [Example 7, N-(5,6-Dimethyl-pyridin-2-yl)-5-trifluoromethyl-phthalamic acid], for which the IC50 was 170 nM and the affinity corresponds to a Ki of 162 nM.
In the same order, the values of `Cc1ccnc(NC(=O)c2ccc(C(F)(F)F)cc2C(=O)O)c1` [Example 8, N-(4-methyl-pyridin-2-yl)-5-trifluoromethyl-phthalamic acid] are 1000 nM and 952 nM.
With `Cc1cc(NC(=O)c2ccc(C(F)(F)F)cc2C(=O)O)ccn1` [Example 9, N-(2-methyl-pyridin-4-yl)-5-trifluoromethyl-phthalamic acid], the IC50 was found to be 700 nM and the Ki worked out at 667 nM.
On to `Cc1ccnc(NC(=O)c2cc(Cl)c(Cl)cc2C(=O)O)c1` [Example 10, 4,5-Dichloro-N-(4-methyl-pyridin-2-yl)-phthalamic acid], for which the IC50 came to 2200 nM and the affinity, expressed as Ki, was 2100 nM.
In the same order, the values of `Cc1ccc(NC(=O)c2cc(Cl)c(Cl)cc2C(=O)O)nc1C` [Example 11, 4,5-Dichloro-N-(5,6-Dimethyl-pyridin-2-yl)-phthalamic acid] are 480 nM and 457 nM.
The matching figures for `Cc1cc(NC(=O)c2cc(Cl)c(Cl)cc2C(=O)O)ccn1` [Example 12, 4,5-Dichloro-N-(2-methyl-pyridin-4-yl)-phthalamic acid]: 1800 nM and 1710 nM.
In the same order, the values of `Cc1nccc(NC(=O)c2cc(Cl)c(Cl)cc2C(=O)O)n1` [Example 13, 4,5-Dichloro-N-(2-methyl-pyrimidin-4-yl)-phthalamic acid] are 480 nM and 457 nM.
Turning to `Cc1cccc(NC(=O)c2ccc(Cl)c(F)c2C(=O)O)n1` [Example 14, 5-Chloro-6-fluoro-N-(6-methyl-pyridin-2-yl)-phthalamic acid], the IC50 was 4200 nM and the Ki is 4000 nM.
In the same order, the values of `Cc1cccc(NC(=O)c2cc(C)c(C)cc2C(=O)O)n1` [Example 15, 4,5-Dimethyl-N-(6-methyl-pyridin-2-yl)-phthalamic acid] are 3400 nM and 3240 nM.
The matching figures for `O=C(O)c1cc(C(F)(F)F)ccc1C(=O)Nc1ncc(C(F)(F)F)cc1Cl` [Example 16, 2-((3-chloro-5-(trifluoromethyl)pyridin-2-yl)carbamoyl)-5-(trifluoromethyl)benzoic acid]: 360 nM and 343 nM.
As for `Cc1ccnc(NC(=O)c2ccc(C(F)(F)F)cc2C(=O)O)n1` [Example 17, 2-((4-methylpyrimidin-2-yl)carbamoyl)-5-(trifluoromethyl)benzoic acid], the IC50 stood at 360 nM and the Ki amounted to 343 nM.
`Cc1ncc(NC(=O)c2ccc(C(F)(F)F)cc2C(=O)O)nc1C` [Example 18, 2-((5,6-dimethylpyrazin-2-yl)carbamoyl)-5-(trifluoromethyl)benzoic acid]: the IC50 came out at 240 nM and affinity was put at a Ki of 229 nM.
The matching figures for `Cc1ccc(NC(=O)c2ccc(Br)cc2C(=O)O)nc1` [Example 19, 5-Bromo-N-(5-methyl-pyridin-2-yl)-phthalamic acid]: 1700 nM and 1620 nM.
With `O=C(O)c1cc(Br)ccc1C(=O)Nc1ccc(Cl)cn1` [Example 20, 5-Bromo-N-(5-chloro-pyridin-2-yl)-phthalamic acid], the IC50 was determined as 990 nM and the Ki amounted to 943 nM.
As for `O=C(O)c1cc(Br)ccc1C(=O)Nc1ccccn1` [Example 21, 5-Bromo-N-pyridin-2-yl-phthalamic acid], the IC50 is 3600 nM and the Ki amounted to 3430 nM.
The matching figures for `O=C(O)c1cc(Br)ccc1C(=O)Nc1cccc(Cl)n1` [Example 22, 5-Bromo-N-(6-chloro-pyridin-2-yl)-phthalamic acid]: 1600 nM and 1520 nM.
For the compound `Cc1ccc(NC(=O)c2ccc(Br)cc2C(=O)O)nc1C` [Example 23, 5-Bromo-N-(5,6-dimethyl-pyridin-2-yl)-phthalamic acid], the IC50 came out at 570 nM and the affinity corresponds to a Ki of 543 nM.
In the same order, the values of `Cc1ccnc(NC(=O)c2ccc(Br)cc2C(=O)O)c1` [Example 24, 5-Bromo-N-(4-methyl-pyridin-2-yl)-phthalamic acid] are 2400 nM and 2290 nM.
In the same order, the values of `Cc1cc(NC(=O)c2ccc(Br)cc2C(=O)O)ccn1` [Example 25, 5-Bromo-N-(2-methyl-pyridin-4-yl)-phthalamic acid] are 1800 nM and 1710 nM.
For `O=C(O)c1cc(Br)ccc1C(=O)Nc1cccnc1` [Example 26], the IC50 worked out at 5500 nM and the affinity corresponds to a Ki of 5240 nM.
As for `Cc1csc(NC(=O)c2ccc(Br)cc2C(=O)O)n1` [Example 28, 5-Bromo-N-(4-methyl-thiazol-2-yl)-phthalamic acid], the IC50 is 3600 nM and the Ki turned out to be 3430 nM.
Consider `O=C(O)c1cc(Br)ccc1C(=O)Nc1ccc2ccccc2n1` [Example 29, 5-Bromo-N-quinolin-2-yl-phthalamic acid], for which the IC50 is 1300 nM and the Ki was found to be 1240 nM.
For `O=C(O)c1cc(Br)ccc1C(=O)Nc1ccc(Cl)c(Cl)n1` [Example 30, 5-Bromo-N-(5,6-dichloro-pyridin-2-yl)-phthalamic acid], the IC50 worked out at 2100 nM and the affinity, expressed as Ki, was 2000 nM.
For the compound `Cc1ccc(NC(=O)c2ccc(Br)cc2C(=O)O)nn1` [Example 32, 5-Bromo-N-(6-methyl-pyridazin-3-yl)-phthalamic acid], the IC50 stood at 3200 nM and the affinity, expressed as Ki, was 3050 nM.
For `Cc1cc(C)nc(NC(=O)c2ccc(Br)cc2C(=O)O)c1` [Example 33, 5-Bromo-N-(4,6-dimethyl-pyridin-2-yl)-phthalamic acid], the IC50 was 970 nM and the Ki amounted to 924 nM.
Take `Cc1nccc(NC(=O)c2ccc(Br)cc2C(=O)O)n1` [Example 34, 5-Bromo-N-(2-methyl-pyrimidin-4-yl)-phthalamic acid]: the IC50 was determined as 490 nM and the affinity, expressed as Ki, was 467 nM.
The matching figures for `Cc1cc(NC(=O)c2ccc(Br)cc2C(=O)O)ncn1` [Example 35, 5-Bromo-N-(6-methyl-pyrimidin-4-yl)-phthalamic acid]: 2000 nM and 1900 nM.
In the same order, the values of `COc1cc(NC(=O)c2ccc(C(F)(F)F)cc2C(=O)O)ccn1` [Example 36, N-(2-Methoxy-pyridin-4-yl)-5-trifluoromethyl-phthalamic acid] are 750 nM and 714 nM.
On to `COc1cccc(NC(=O)c2ccc(C(F)(F)F)cc2C(=O)O)n1` [Example 37, N-(6-Methoxy-pyridin-2-yl)-5-trifluoromethyl-phthalamic acid], for which the IC50 is 1300 nM and the affinity, expressed as Ki, was 1240 nM.
Take `O=C(O)c1cc(C(F)(F)F)ccc1C(=O)NCc1ccccn1` [Example 38, N-Pyridin-2-ylmethyl-5-trifluoromethyl-phthalamic acid]: the IC50 is 1600 nM and the affinity corresponds to a Ki of 1520 nM.
The matching figures for `O=C(O)c1cc(C(F)(F)F)ccc1C(=O)NCc1ccncc1` [Example 39, N-Pyridin-4-ylmethyl-5-trifluoromethyl-phthalamic acid]: 7500 nM and 7140 nM.
In the same order, the values of `O=C(O)c1cc(C(F)(F)F)ccc1C(=O)NCc1cccnc1` [Example 40, N-Pyridin-3-ylmethyl-5-trifluoromethyl-phthalamic acid] are 4800 nM and 4570 nM.
In the same order, the values of `CCCc1ccc(C(=O)Nc2cccc(C)n2)c(C(=O)O)c1` [Example 41, N-(6-Methyl-pyridin-2-yl)-5-propyl-phthalamic acid] are 3600 nM and 3430 nM.
Turning to `C=C(C)c1ccc(C(=O)Nc2cccc(C)n2)c(C(=O)O)c1` [Example 42, N 5-Isopropenyl-N-(6-methyl-pyridin-2-yl)-phthalamic acid], the IC50 amounted to 5200 nM and the Ki came to 4950 nM.
Turning to `Cc1cccc(NC(=O)c2ccc(C(C)C)cc2C(=O)O)n1` [Example 43, N 5-Isopropyl-N-(6-methyl-pyridin-2-yl)-phthalamic acid], the IC50 was 1100 nM and the affinity, expressed as Ki, was 1050 nM.
In the same order, the values of `Cc1nccc(NC(=O)c2ccc(C(F)(F)F)cc2C(=O)O)n1` [Example 44, 2-((2-methylpyrimidin-4-yl)carbamoyl)-5-(trifluoromethyl)benzoic acid] are 300 nM and 286 nM.
The matching figures for `Cc1cnc(NC(=O)c2ccc(C(F)(F)F)cc2C(=O)O)nc1C` [Example 45, 2-((4,5-dimethylpyrimidin-2-yl)carbamoyl)-5-(trifluoromethyl)benzoic acid]: 200 nM and 190 nM.
In the same order, the values of `O=C(O)c1cc(C(F)(F)F)ccc1C(=O)Nc1ccc2c(n1)CCCC2` [Example 46, 2-((5,6,7,8-tetrahydroquinolin-2-yl)carbamoyl)-5-(trifluoromethyl)benzoic acid] are 88 nM and 84 nM.
